# In patent EP4680608B1, “2,6-DIHYDRO-7H-PYRAZOLO[3,4-C]PYRIDIN-7-ONE DERIVATIVES AS ANTI-MALARIAL AGENTS” (MMV Medicines for Malaria Venture, priority 2024, dated 2025):
# Read-outs that look alike come from different tables or passages of the source.
# Legend:
# [1] = molecular target: P. vivax DHODH (Plasmodium vivax, UniProt A5K1N1); test: DHODH inhibition, steady-state DCIP assay (PvDHODH); type: biochemical
# Excerpt: (§1) DOI: 10.1074/jbc.M206854200).
# (§2) Proteins were expressed and purified on a Pharmacia FPLC using HisTrap HP column chromatography followed by gel filtration chromatography on a Pharmacia HiLoad 16/600 Superdex 200 column, and protein concentration determined based on OD280 using the previously described extinction coefficients (Kokkonda et al., 2020, J Med Chem, 63 (9), 4929-4956. DOI: 10.1021/acs.jmedchem.0c00311). Purified proteins were >95% pure based on SDS-PAGE analysis.
# (§3) DHODH activity was monitored in a steady-state assay using the 2,6-dichloroindophenol (DCIP) method at 25°C in assay buffer (100 mM HEPES, pH 8.0, 150 mM NaCl, 1% glycerol, 0.1% Triton X-100 reduced) plus substrates 20 µM CoQD, 200 µM DHO, 120 µM DCIP, and 5 nM enzyme as previously described (Malmquist et al, 2008, Biochemistry, 47 (8), 2466-2475. DOI: 10.1021/bi702218c).
# (§4) Compound stocks were prepared at 10-100 mM in DMSO, and diluted working stocks in DMSO were generated as appropriate. Compounds were plated from DMSO stocks in 96 well plate format using a Tecan D300e digital dispenser to generate a 3-fold dilution series over a concentration range of 0.0003 -100 µM (or 30 µM), yielding a final DMSO concentration of 1% in the assay. The top concentration used in the dose response was determined by the initial DMSO stock concentrations:100 µM for 100 mM stocks, and 30 µM for 10 mM stocks. Triplicate rate data were collected at each inhibitor concentration. Inhibitory IC50 values were determined by fitting the data to log (inhibitor) vs response equation Y = bottom + (top - bottom)/(1 + 10A ((X - Log IC50))) in GraphPad Prism. DSM265 ^2 was plated as an assay control in all studies.
# [2] = tested on: P. falciparum 3D7; test: Asexual blood-stage growth inhibition assay, SYBR green method; type: cell-based; conditions: ring-stage 3D7 parasites
# Experimental: Asexual blood-stage EC50 assays. […] Compound stocks prepared in DMSO were plated using a Tecan D300e automated low volume liquid handler. Ring-stage 3D7 or Dd2 parasites (60 µL cells) (2% hematocrit, 0.5% parasitemia, final DMSO concentration 0.5%) were added to plates, incubated with compounds over a range of concentrations in technical triplicate for 72 h at 37 °C, 5% CO2, and then frozen (-80°C) overnight before analysis. […] Data were analyzed by non-linear regression using GraphPad Prism to determine the EC50 by fitting to the built-in equation (log(inhibitor) vs response-variable slope with four parameters).
# [3] = molecular target: T1, Human DHODH (Homo sapiens, UniProt Q02127); test: DHODH inhibition, steady-state DCIP assay (human DHODH); type: biochemical; conditions: recombinant HsDHODH, DCIP method, 25°C, 5 nM enzyme; top concentration 100 µM or 30 µM
# T1 construct: C-terminal His6-tagged HsDHODH residues 29-395 in pET-22b (start ^29MATGDE); His6 (C); made in house; host or cells: E. coli BL21-DE3 (phage-resistant)
# Excerpt: as §1, §2, §3, §4
# [4] = molecular target: T2, P. falciparum DHODH (Plasmodium falciparum, UniProt Q08210); test: DHODH inhibition, steady-state DCIP assay (PfDHODH); type: biochemical; conditions: recombinant PfDHODH, DCIP method, 25°C, 5 nM enzyme
# T2 construct: His6 (N); made in house; host or cells: E. coli BL21-DE3 (phage-resistant)
# Experimental: as §4, with “Prism.” for “Prism. DSM265 ^2 was plated as an assay control in all studies.”
# [5] = recombinant PvDHODH, DCIP method, 25°C, 5 nM enzyme; read-out: P. vivax DHODH (IC50)
# [6] = Plasmodium falciparum, 3D7, 72 h
# [7] = read-out: P. vivax DHODH (IC50); recombinant PvDHODH, DCIP method, 25°C, 5 nM enzyme
# T1 sequence (Q02127 29-395): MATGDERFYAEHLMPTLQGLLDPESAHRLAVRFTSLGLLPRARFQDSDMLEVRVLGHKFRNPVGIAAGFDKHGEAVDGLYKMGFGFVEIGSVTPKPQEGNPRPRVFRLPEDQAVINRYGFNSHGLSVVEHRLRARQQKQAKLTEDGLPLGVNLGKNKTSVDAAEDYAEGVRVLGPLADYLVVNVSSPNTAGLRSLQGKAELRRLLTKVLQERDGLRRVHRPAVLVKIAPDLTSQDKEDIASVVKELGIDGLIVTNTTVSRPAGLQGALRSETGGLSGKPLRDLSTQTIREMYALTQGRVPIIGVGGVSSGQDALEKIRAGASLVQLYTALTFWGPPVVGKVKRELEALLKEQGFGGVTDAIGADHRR
# T2 sequence (Q08210 158-569): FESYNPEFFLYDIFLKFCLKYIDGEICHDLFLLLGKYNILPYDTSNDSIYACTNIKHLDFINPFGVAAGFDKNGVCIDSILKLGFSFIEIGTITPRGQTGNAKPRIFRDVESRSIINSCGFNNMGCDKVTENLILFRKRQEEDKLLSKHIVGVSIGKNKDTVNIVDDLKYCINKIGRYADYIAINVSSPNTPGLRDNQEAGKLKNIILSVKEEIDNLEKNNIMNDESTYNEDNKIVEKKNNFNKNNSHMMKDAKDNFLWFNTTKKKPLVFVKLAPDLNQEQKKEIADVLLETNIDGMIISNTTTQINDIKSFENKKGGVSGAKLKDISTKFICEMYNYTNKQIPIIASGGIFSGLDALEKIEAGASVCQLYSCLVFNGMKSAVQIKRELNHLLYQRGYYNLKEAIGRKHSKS
# Sequence of P. vivax DHODH (A5K1N1 entry or part of it): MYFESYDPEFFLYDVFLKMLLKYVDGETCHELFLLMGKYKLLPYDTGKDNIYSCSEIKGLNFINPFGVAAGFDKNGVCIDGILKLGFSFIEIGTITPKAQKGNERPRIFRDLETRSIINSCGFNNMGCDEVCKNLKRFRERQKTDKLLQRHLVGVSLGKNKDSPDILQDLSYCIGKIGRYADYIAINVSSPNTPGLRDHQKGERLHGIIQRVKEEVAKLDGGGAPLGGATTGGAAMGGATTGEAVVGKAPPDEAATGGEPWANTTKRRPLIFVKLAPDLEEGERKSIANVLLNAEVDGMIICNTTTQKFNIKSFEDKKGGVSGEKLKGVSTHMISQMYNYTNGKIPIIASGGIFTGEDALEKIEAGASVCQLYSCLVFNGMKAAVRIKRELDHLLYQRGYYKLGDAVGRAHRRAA
SMILES,"IC50 [1, 5]","EC50 [2, 6]",IC50 [3],IC50 [4],EC50 ([2]; 72 h),"IC50 [1, 7]"
"CC(C)[C@@](O)(c1cnc(C(F)(F)F)c(Cl)c1)c1c2ccn(C3CC3)c(=O)c2nn1C (single isomer, unassigned) [1-1]",40 nM,16 nM,> 30000 nM,46 nM,–,–
"Cn1nc2c(=O)n(C3CC3)ccc2c1[C@](O)(c1ccc(C(F)(F)F)c(C#N)c1)C1CC1 (single isomer, unassigned) [1-3]",17 nM,1.3 nM,> 30000 nM,17 nM,–,–
"CC[C@@](O)(c1ccc(C(F)(F)F)c(C#N)c1)c1c2ccn(C3CC3)c(=O)c2nn1C (single isomer, unassigned) [1-5]",21 nM,0.75 nM,910 nM,17 nM,–,–
"Cn1nc2c(=O)n(C3CC3)ccc2c1[C@](C)(O)c1ccc(F)c(Cl)c1 (single isomer, unassigned) [1-9]",6.9 nM,0.92 nM,14000 nM,16 nM,–,–
"CC[C@@](O)(c1cc(F)c(Cl)c(F)c1)c1c2ccn(C3CC3)c(=O)c2nn1C (single isomer, unassigned) [1-20]",19 nM,0.5 nM,1400 nM,–,–,–
"CC[C@@](O)(c1ccc(C(F)(F)F)nc1)c1c2ccn(C3CC3)c(=O)c2nn1C (single isomer, unassigned) [1-22]",48 nM,2.7 nM,5300 nM,–,–,–
"CCn1ccc2c([C@](O)(c3cnc(C(F)(F)F)c(Cl)c3)C3CC3)n(C)nc2c1=O (single isomer, unassigned) [1-32]",8 nM,2.4 nM,> 100000 nM,–,–,–
"CCn1ccc2c([C@](O)(c3ccc(C(F)(F)F)nc3)C3CC3)n(C)nc2c1=O (single isomer, unassigned) [1-44]",29 nM,7.2 nM,> 100000 nM,–,–,–
"Cn1nc2c(=O)n(C3CC3)ncc2c1[C@](O)(c1cnc(C(F)(F)F)c(Cl)c1)C1CC1 (single isomer, unassigned) [2-10]",21 nM,15 nM,> 30000 nM,–,–,–
"CC[C@@](O)(c1cnc(C(F)(F)F)c(Cl)c1)c1c2cnn(C3CC3)c(=O)c2nn1C (single isomer, unassigned) [2-14]",–,2.7 nM,> 30000 nM,–,–,–
"CC[C@@](O)(c1cnc(C(F)(F)F)c(Cl)c1)c1c2ncn(C3CC3)c(=O)c2nn1C (single isomer, unassigned) [3-5]",17 nM,0.94 nM,6800 nM,–,–,–
"Cn1nc2c(=O)n(C3CC3)ccc2c1[C@](N)(c1cnc(C(F)(F)F)c(Cl)c1)C1CC1 (single isomer, unassigned) [4-9]",–,14 nM,21000 nM,44 nM,–,–
"CC[C@@](N)(c1ccc(C(F)(F)F)c(Cl)c1)c1c2cnn(C3CC3)c(=O)c2nn1C (single isomer, unassigned) [4-18]",6.2 nM,3.4 nM,4700 nM,–,–,–
"Cn1nc2c(=O)n(C3CC3)ncc2c1[C@](O)(c1cnc(C(F)(F)F)c(Cl)c1)C(F)(F)F (single isomer, unassigned) [5-1]",20 nM,3.8 nM,> 30000 nM,–,–,–
"Cn1nc2c(=O)n(C3CC3)ccc2c1[C@](O)(c1cnc(C(F)(F)F)c(Cl)c1)C(F)(F)F (single isomer, unassigned) [5-5]",–,0.51 nM,> 30000 nM,–,–,–
"Cn1nc2c(=O)n(C3CC3)ccc2c1[C@](O)(c1ccc(C(F)(F)F)nc1)C(F)(F)F (single isomer, unassigned) [5-11]",25 nM,1.9 nM,> 30000 nM,–,–,–
"Cn1nc2c(=O)n(C3CC3)cnc2c1[C@](O)(c1ccc(C(F)(F)F)c(C#N)c1)C(F)(F)F (single isomer, unassigned) [5-56]",–,–,–,18 nM,0.14 nM,–
Cn1nc2c(=O)n(C3CC3)ccc2c1[C@](O)(c1ccc(C(F)(F)F)c(Cl)c1)C(F)(F)F (stereo in doubt) [5-7],–,0.17 nM,4700 nM,–,–,9.1 nM
Cn1nc2c(=O)n(C3CC3)ccc2c1[C@](C)(O)c1cnc(C(F)(F)F)c(Cl)c1 [1-10],–,1.4 nM,–,25 nM,–,9.7 nM
